Experimental data from article PMC5323398, “Restoration of Epithelial Sodium Channel Function by Synthetic Peptides in Pseudohypoaldosteronism Type 1B Mutants” (Frontiers in Pharmacology, 2017).
Numbering of substitutions follows the chain as printed.

Assays:
αQ101K mutant hENaC = molecular target: T1, αQ101K mutant hENaC (Homo sapiens, UniProt P37088+P51168+P51170, Q101K); assay: Whole-cell patch clamp, amiloride-sensitive Na+ current, αQ101K ENaC; type: cell-based; details: αQ101K activated by solnatide; 10 μM amiloride
T1 construct: expressed in transfected cells
T1 sequence (P37088 1-669 Q101K): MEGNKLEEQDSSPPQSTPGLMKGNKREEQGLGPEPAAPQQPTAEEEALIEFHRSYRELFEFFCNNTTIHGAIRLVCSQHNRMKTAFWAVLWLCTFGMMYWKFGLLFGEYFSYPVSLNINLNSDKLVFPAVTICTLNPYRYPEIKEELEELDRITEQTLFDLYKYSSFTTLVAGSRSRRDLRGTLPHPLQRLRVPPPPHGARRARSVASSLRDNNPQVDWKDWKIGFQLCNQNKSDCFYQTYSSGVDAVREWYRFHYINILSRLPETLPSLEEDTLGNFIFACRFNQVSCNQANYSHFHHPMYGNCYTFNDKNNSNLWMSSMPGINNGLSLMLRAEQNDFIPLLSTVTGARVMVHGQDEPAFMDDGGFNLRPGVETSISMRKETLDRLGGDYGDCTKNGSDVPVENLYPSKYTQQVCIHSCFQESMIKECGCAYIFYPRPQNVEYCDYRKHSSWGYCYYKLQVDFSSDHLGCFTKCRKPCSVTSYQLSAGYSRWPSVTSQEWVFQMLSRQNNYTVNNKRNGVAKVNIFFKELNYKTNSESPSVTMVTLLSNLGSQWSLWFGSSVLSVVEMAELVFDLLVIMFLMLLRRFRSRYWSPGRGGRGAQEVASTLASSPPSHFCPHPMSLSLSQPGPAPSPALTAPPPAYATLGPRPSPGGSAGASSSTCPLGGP
T1 sequence (P51168 1-640): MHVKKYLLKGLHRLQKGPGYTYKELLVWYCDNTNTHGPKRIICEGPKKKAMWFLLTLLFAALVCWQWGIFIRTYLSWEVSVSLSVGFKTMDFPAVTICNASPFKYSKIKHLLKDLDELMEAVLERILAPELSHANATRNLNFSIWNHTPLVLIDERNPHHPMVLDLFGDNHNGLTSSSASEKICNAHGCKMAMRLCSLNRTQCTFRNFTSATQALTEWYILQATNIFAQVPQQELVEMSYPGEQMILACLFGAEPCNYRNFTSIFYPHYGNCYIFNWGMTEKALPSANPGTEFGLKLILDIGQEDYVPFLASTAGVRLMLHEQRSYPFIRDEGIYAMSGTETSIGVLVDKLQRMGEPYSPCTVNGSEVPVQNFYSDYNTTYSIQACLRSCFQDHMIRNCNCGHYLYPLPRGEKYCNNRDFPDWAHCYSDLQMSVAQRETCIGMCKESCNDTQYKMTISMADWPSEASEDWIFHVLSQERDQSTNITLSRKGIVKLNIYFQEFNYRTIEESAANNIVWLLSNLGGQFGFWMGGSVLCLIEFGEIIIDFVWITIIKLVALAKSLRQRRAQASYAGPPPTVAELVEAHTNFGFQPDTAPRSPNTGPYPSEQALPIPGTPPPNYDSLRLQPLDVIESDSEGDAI
T1 sequence (P51170 1-649): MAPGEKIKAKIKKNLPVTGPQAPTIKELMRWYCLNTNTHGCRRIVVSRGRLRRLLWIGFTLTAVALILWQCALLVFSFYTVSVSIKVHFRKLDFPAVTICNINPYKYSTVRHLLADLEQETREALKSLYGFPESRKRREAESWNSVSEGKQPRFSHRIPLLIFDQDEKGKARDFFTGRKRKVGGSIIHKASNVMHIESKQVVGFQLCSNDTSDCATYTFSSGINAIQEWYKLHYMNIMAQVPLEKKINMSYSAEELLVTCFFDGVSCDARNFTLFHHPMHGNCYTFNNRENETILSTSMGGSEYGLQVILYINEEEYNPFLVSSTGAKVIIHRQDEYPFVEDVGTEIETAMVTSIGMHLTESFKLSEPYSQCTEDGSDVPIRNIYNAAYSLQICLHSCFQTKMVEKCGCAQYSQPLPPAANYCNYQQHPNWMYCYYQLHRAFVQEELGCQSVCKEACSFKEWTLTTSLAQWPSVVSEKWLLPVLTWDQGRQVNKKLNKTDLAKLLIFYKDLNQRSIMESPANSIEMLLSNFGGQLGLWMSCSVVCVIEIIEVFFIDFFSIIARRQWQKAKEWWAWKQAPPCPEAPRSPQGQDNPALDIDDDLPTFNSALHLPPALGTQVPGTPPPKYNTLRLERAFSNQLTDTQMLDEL
Protocol: (§1) Human embryonic kidney HEK-293 cells (ATCC no. CRL-1573) in passages 3–25, were seeded in Dulbecco's modified Eagle medium/F12 nutrient mixture Ham plus L-glutamine (DMEM/F-12; Gibco™ by Life Technologies, LifeTech Austria), supplemented with 10% fetal bovine serum (FBS; Gibco™ by Life Technologies, LifeTech Austria) and 1% penicillin-streptomycin (Sigma-Aldrich, Vienna, Austria). Cells were maintained at 37°C with 5% CO2 in a humidified incubator.
(§2) Point mutations and single base (insertions or) deletions, causing a frameshift, were introduced into cDNA encoding α-, β-, or γ-hENaC using QuikChange Lightning Site-Directed Mutagenesis Kit (Agilent Technologies, CA, USA). Pairs of mutagenic primers were designed individually with the Primer Design Program provided on the producer's website. The same bases were changed as reported in patients or at least resulting in the same protein products. The designed primers were ordered after checking their properties using the DNA Oligos Design Tool from Sigma-Aldrich, Vienna, Austria (Table 1).
(§3) HEK-293 cells were transfected 1 day after cell seeding using X-tremeGENE HP DNA transfection reagent (Roche Diagnostics, Mannheim, Germany) according to the manufacturer's protocol. […]

αG327C mutant hENaC = molecular target: T2, αG327C mutant hENaC (Homo sapiens, UniProt P37088+P51168+P51170, G327C); assay: Whole-cell patch clamp, amiloride-sensitive Na+ current, αG327C ENaC; type: cell-based; details: αG327C activated by AP318; 10 μM amiloride
T2 construct: expressed in transfected cells
T2 sequence (P37088 1-669 G327C): T1 sequence (P37088 1-669 Q101K) with K101Q, G327C
T2 sequence (P51168 1-640): T1 sequence (P51168 1-640)
T2 sequence (P51170 1-649): T1 sequence (P51170 1-649)
Protocol: as §1, §2, §3

[1] = tested on: mock-transfected HEK-293 cells; assay: Whole-cell current of mock-transfected cells; type: cell-based, human
Protocol: Whole-cell currents were recorded from transfected HEK-293 cells with an Axopatch 200B amplifier, DigiData 1440A and pCLAMP10.2 software (Axon Instruments, Union City, CA) at room temperature (19–22°C) 48–72 h after transfection. Currents were recorded at 10 kHz and filtered at 5 kHz. The chamber contained 1 ml bath solution of the following composition (in mM): 145 NaCl, 2.7 KCl, 1.8 CaCl2, 2 MgCl2, 5.5 glucose, and 10 HEPES, adjusted to pH 7.4 with 1 M NaOH solution. The borosilicate glass patch pipettes (Harvard Apparatus, Holliston, MA) had resistances of 2–4 MΩ. The pipette solution contained (in mM): 135 potassium methane sulphonate, 10 KCl, 6 NaCl, 1Mg2ATP, 2 Na3ATP, 10 HEPES, and 0.5 EGTA, adjusted to pH 7.2 with 1 M KOH solution. Data acquisition and storage were processed directly to a PC. […] Differences were evaluated by one-way ANOVA followed by Tukey's post-hoc test.

[2] = molecular target: human ENaC with the frameshift γV543fs (γ subunit of 597 residues, abnormal sequence after S542), co-expressed with WT α and β subunits (human) (UniProt P37088)

Molecule	block of peptide-induced activation (αQ101K mutant hENaC)	block of peptide-induced activation (αG327C mutant hENaC)	amiloride-sensitive or peptide-induced current ([1]; 10 μM amiloride or 200 nM peptide)	whole-cell current ([1]; 10 μM amiloride, control 11.28 ± 5.68 pA) [pA]	EC50 of the increase of amiloride-sensitive Na+ current, whole-cell patch clamp at -100 mV, transfected HEK-293 cells, peptide 2-200 nM [2] [µM]
N=C(N)NC(=O)c1nc(Cl)c(N)nc1N [amiloride]	can be blocked by 10 μM amiloride	can be blocked by 10 μM amiloride	about zero	10.47 ± 6.23	
AP318 (peptide)					0.0477
